Results published in ChEMBL document CHEMBL5325454, “Synthesis, anti-ferroptosis, anti-quorum sensing, antibacterial and DNA interaction studies of chromene-hydrazone derivatives” (Bioorg Med Chem, 2023).
≈ marks a conversion by molar mass, not a printed value. Calls of active or inactive are those of the source. The calls are words filed in the database; no cut-off is given here.

What was measured:
DNA [1] = assay: Induction of Escherichia coli supercoiled pBR322 DNA cleavage assessed as cleavage of DNA into open-circular forms in presence of Copper(II)acetate incubated overnight by GelRed DNA gel staining based electrophoresis analysis; format: nucleic-acid assay
HaCaT [2] = assay: Anti-ferroptotic activity against Erastin-induced ferroptosis in human HaCaT cells assessed as increase in cell viability at 5 uM preincubated with compound for 4 hrs followed by […] administration and measured after 24 hrs by MTT assay relative to control; format: functional; settings: time 28 hrs
Vibrio harveyi [3] = assay: Antibacterial activity against Vibrio harveyi BB120 assessed as inhibition of bacterial growth measured at 24 hrs by broth microdilution assay; format: functional
DNA [4] = assay: Induction of Escherichia coli supercoiled pBR322 DNA cleavage in absence of Cu2+ ion incubated overnight by GelRed DNA gel staining based electrophoresis analysis; format: nucleic-acid assay
[5] = Inhibition of quorum sensing system in Vibrio harveyi BB120 assessed as reduction in luminescence incubated for 5 hrs under shaking condition by luminescence microplate reader analysis
HaCaT [6] = assay: Anti-ferroptotic activity against Erastin-induced ferroptosis in human HaCaT cells assessed as increase in cell viability at 5 uM preincubated with compound for 4 hrs followed by […] administration and measured after 24 hrs by MTT assay; format: functional, cell-based; settings: time 28.0 hrs
Vibrio harveyi [7] = assay: Antibacterial activity against Vibrio harveyi BB120 assessed as inhibition of bacterial growth upto 250 uM measured at 24 hrs by broth microdilution assay; format: functional, organism-based
Calf thymus DNA [8] = assay: Binding affinity to calf thymus DNA assessed as apparent binding constant upto 30 uM by UV-Vis spectroscopic analysis; format: nucleic-acid assay; settings: Bos taurus
Calf thymus DNA [9] = assay: Binding affinity to calf thymus DNA assessed as hyperchromicity by UV-Vis spectroscopic analysis; format: nucleic-acid assay; settings: Bos taurus; dose <= 30.0 µM
Vibrio harveyi [10] = assay: Antibacterial activity against Vibrio harveyi BB120 assessed as inhibition of bacterial growth at 1 to 1024 ug/ml measured at 24 hrs by broth microdilution assay; format: functional, organism-based; settings: dose 1-1024 µg/ml
HaCaT [11] = assay: Anti-ferroptotic activity against Erastin-induced ferroptosis in human HaCaT cells assessed as cell viability at 5 uM preincubated with compound for 4 hrs followed by […] administration and measured after 24 hrs by MTT assay relative to control; format: functional; settings: time 28 hrs
Escherichia coli = assay: Antibacterial activity against Escherichia coli assessed as inhibition of bacterial growth; format: functional, organism-based
Staphylococcus aureus [12] = assay: Antibacterial activity against methicillin-resistant Staphylococcus aureus MW2 assessed as zone of inhibition incubated overnight by disc diffusion assay; format: functional
Staphylococcus aureus [13] = assay: Antibacterial activity against methicillin-resistant Staphylococcus aureus MW2 assessed as inhibition of bacterial growth measured at 24 hrs by broth microdilution assay; format: functional

Row | Activity (DNA [1]) | MIC (Vibrio harveyi [3]) | Activity (DNA [4]) | inhibition [5] | SMILES | Activity (HaCaT [2]) | also measured
1 | Active | 62.5 µM (≈ 23.8 µg/mL) | inactive | inactive | Cc1cc(C(=O)N/N=C/c2ccc3c(c2O)C=CC(C)(C)O3)ccc1[N+](=O)[O-] | 34% | –
2 | Active | > 250 µM | inactive | inactive | Cc1ccc(C(=O)N/N=C/c2ccc3c(c2O)C=CC(C)(C)O3)cc1 | 44% | –
3 | Active | – | inactive | – | CC1(C)C=Cc2c(ccc(/C=N/NS(=O)(=O)c3ccc(C(F)(F)F)cc3)c2O)O1 | – | Activity (HaCaT [6]): inactive; Activity (Vibrio harveyi [7]): inactive; Kapp (Calf thymus DNA [8]): 6.02 10^3/M; IC50 [5]: > 250 µM; Activity (Calf thymus DNA [9]): Dose-Dependent Effect
4 | Active | – | inactive | inactive | CC1(C)C=Cc2c(ccc(/C=N/NC(=O)c3ccc(C(C)(C)C)cc3)c2O)O1 | 44% | Activity (Vibrio harveyi [10]): inactive
5 | Active | – | inactive | inactive | CC1(C)C=Cc2c(ccc(/C=N/NC(=O)c3ccc(Br)cc3)c2O)O1 | 44% | Activity (Vibrio harveyi [10]): inactive
6 | Active | 3.9 µM (≈ 1.32 µg/mL) | inactive | inactive | CC1(C)C=Cc2c(ccc(/C=N/NC(=O)c3ccc(O)cc3)c2O)O1 | 44% | –
7 | Active | 15.6 µM (≈ 5.04 µg/mL) | inactive | inactive | CC1(C)C=Cc2c(ccc(/C=N/NC(=O)c3ccncc3)c2O)O1 | 34% | –
8 | Active | 125 µM (≈ 34.7 µg/mL) | inactive | inactive | CC1(C)C=Cc2c(ccc(/C=N/NC(N)=S)c2O)O1 | 54% | –
9 | Active | > 250 µM | inactive | inactive | CC1(C)C=Cc2c(ccc(/C=N/NC(=O)c3ccc(Cl)cc3)c2O)O1 | 44% | –
10 | Active | – | inactive | inactive | CC1(C)C=Cc2c(ccc(/C=N/NC(=O)c3ccccn3)c2O)O1 | 34% | Activity (Vibrio harveyi [10]): inactive
11 | Active | – | inactive | inactive | CC1(C)C=Cc2c(ccc(/C=N/NC(=O)c3ccc([N+](=O)[O-])cc3)c2O)O1 | 34% | Activity (Vibrio harveyi [10]): inactive
12 | Active | – | inactive | – | Cc1ccc(S(=O)(=O)N/N=C/c2ccc3c(c2O)C=CC(C)(C)O3)cc1 | – | Activity (HaCaT [6]): inactive; Activity (Vibrio harveyi [7]): inactive; IC50 [5]: > 250 µM
13 | Active | – | inactive | inactive | COc1ccc(C(=O)N/N=C/c2ccc3c(c2O)C=CC(C)(C)O3)cc1 | 44% | Activity (Vibrio harveyi [10]): inactive
14 | Active | 10 µM (≈ 3.23 µg/mL) | inactive | inactive | CC1(C)C=Cc2c(ccc(/C=N/NC(=O)c3cccnc3)c2O)O1 | 34% | –
15 | Active | 7.8 µM (≈ 2.51 µg/mL) | inactive | inactive | CC1(C)C=Cc2c(ccc(/C=N/NC(=O)c3ccccc3)c2O)O1 | 44% | –
16 | – | – | – | – | O=c1c(O)c(-c2ccc(O)c(O)c2)oc2cc(O)ccc12 [FISETIN] | 42% | –
17 | Active | – | inactive | – | CC1(C)C=Cc2c(ccc(/C=N/NC(N)=O)c2O)O1 | – | Activity (Vibrio harveyi [7]): inactive; Kapp (Calf thymus DNA [8]): 9.55 10^3/M; IC50 [5]: 27 µM; Activity (Calf thymus DNA [9]): Dose-Dependent Effect; Activity (HaCaT [11]): 18%
18 | Active | – | inactive | – | CC1(C)C=Cc2c(ccc(/C=N/NS(=O)(=O)c3ccccc3)c2O)O1 | – | Activity (Vibrio harveyi [7]): inactive; IC50 [5]: 22 µM
19 | Active | 40 µM (≈ 10.4 µg/mL) | inactive | inactive | CC(=O)N/N=C/c1ccc2c(c1O)C=CC(C)(C)O2 | – | Activity (HaCaT [6]): Active

Row | SMILES | Activity (DNA [1]) | MIC (Vibrio harveyi [3]) | Activity (DNA [4]) | inhibition [5] | Activity (HaCaT [2]) | also measured
20 | CC1(C)C=Cc2c(ccc(/C=N/NC(=O)c3ccc(O)cc3O)c2O)O1 | Active | 10 µM (≈ 3.54 µg/mL) | inactive | inactive | 34% | Activity (Escherichia coli): inactive; Kapp (Calf thymus DNA [8]): 5.73 10^3/M; Activity (Calf thymus DNA [9]): Dose-Dependent Effect; inhibition zone (IZ) (Staphylococcus aureus [12]): 11 mm; MIC (Staphylococcus aureus [13]): 64 mg/L (≈ 181 µM)
